From patent publication US8203033B2, “Methods and compositions for providing tolerance to multiple herbicides” (Pioneer Hi-Bred International, Inc., priority 2005, dated 2012)

What was measured:
Format in all cases: in vivo
[1] = tested on: Heterozygous GAT-HRA corn; assay: Postemergence test of herbicides on corn (fresh weight, visual injury); settings: for Fresh Weight: fresh shoots weighed 2 weeks after treatment
[2] = tested on: Heterozygous GAT-HRA corn; assay: Preemergence test of ALS herbicides on corn (fresh weight, visual injury); settings: 200 g/ha, mean of four replications; for % Visual Injury: 0% no injury, 100% plant death; for Fresh Weight: fresh shoots weighed 4 weeks after treatment
[3] = tested on: parent elite stiff stalk inbred corn; assay: as above; settings: 200 g/ha, mean of four replications; for % Visual Injury: 0% no injury, 100% plant death; for Fresh Weight: fresh shoots weighed 4 weeks after treatment
[4] = tested on: parent elite stiff stalk inbred corn; assay: Postemergence test of herbicides on corn (fresh weight, visual injury)
GAT-HRA maize = assay: Evaluation of herbicide tolerance, spray at V2 stage; settings: postemergence; tribenuron, chlorimuron, imazapyr 200 g ai/ha; metsulfuron-methyl 35 g ai/ha
Procedure: GAT-HRA maize plants were evaluated for tolerance to glyphosate and other herbicides. One protocol used in this evaluation was as follows. At the V2 stage (Ritchie and Hanway (1982), “How a corn plant develops” Spec. Rep. 48. (Coop. Ext. Ser., Iowa State Univ., Ames, Iowa)), plant heights were measured and herbicides were applied by spray application. Ten to fourteen days after the spray application, the transgenic plants were evaluated for injury symptoms and measured for plant height again in order to determine plant growth rates.
Plants were then evaluated at various times after treatment, such as 10 or 14 days after treatment. […] Leaf samples were taken from GAT-HRA plants and used in quantitative PCR analysis and other analyses to determine the number and arrangement of copies of the GAT and HRA polynucleotides that had been integrated into the plant genome.
Other protocols for evaluation included treatment with imidazolinone herbicides, such as the commercial herbicide Lightning® (a combination of imazapyr and imazethapyr), which was applied to GAT-HRA maize at the V2 leaf stage at four times the field label rate (250 g ai/ha). […] Another protocol for evaluation included treatment with imidazolinone herbicides as well as sulfonylurea and glyphosate herbicides. In these tests, GAT-HRA maize was treated with various combinations of Lightning® (imazapyr and imazethapyr), Basis® (rimsulfuron and thifensulfuron-methyl) and WeatherMAX® (glyphosate potassium salt). These herbicides were applied at the V2 stage as follows: Lightning® at twice the field label rate (1.8 oz ai/ac (133 ml ai/ha)), Basis® at twice the field label rate (0.5 oz ai/ac (36.9 ml ai/ha)) and WeatherMax® at four times the field label rate (43 oz ai/ac). Fourteen days after the treatment application, the plants were evaluated. […] “Field label rate” refers to the application rate specified on the product label. Where the application rate for a particular situation is a range of rates, as used herein, the term “field label rate” indicates the upper end of that range. […]

[5] = tested on: non-glyphosate resistant ryegrass (70-04); assay: Glyphosate, metsulfuron-methyl and two additives on the control of ryegrass; settings: 5-6 leaf stage
Procedure: The example was conducted on non-glyphosate resistant ryegrass. As provided in Table 23, all treatments that included glyphosate [180 g a.i. L ha^−1 (0.5 L glyphosate (SCAT®))] plus metsulfuron-methyl (BRUSH-OFF®) (5 and 10 g ha^−1) gave 100% control of the ryegrass.

control maize = assay: Evaluation of herbicide tolerance, spray at V2 stage; settings: postemergence; tribenuron, chlorimuron, imazapyr 200 g ai/ha; metsulfuron-methyl 35 g ai/ha
[6] = tested on: Hairy Fleabane (Conyza bonariensis); assay: Glyphosate, metsulfuron-methyl and two additives on the control of hairy fleabane
Procedure: This example included the same treatments as used in Example 11, except the treatments were carried out on a glyphosate sensitive biotype of Kleinskraalhans (Conyza bonariensis).

[7] = 200 g/ha, mean of four replications
[8] = 200 g/ha, 0% no injury, 100% plant death, mean of four replications
[9] = 200 g/ha, fresh shoots weighed 2 weeks after treatment, mean of four replications

Compound | Fresh Weight [1, 7] | % Visual Injury [2] | % Visual Injury [3] | Fresh Weight [3] | % Visual Injury [4, 8] | Fresh Weight [4, 9] | % Visual Injury [1, 8] | Fresh Weight [2] | also measured
Imazamethabenz-methyl | 95.0 g | – | – | – | – | – | – | – | –
CCOc1nc(NC)nc(NC(=O)NS(=O)(=O)c2ccccc2C(=O)OC)n1 [Ethametsulfuron-methyl, methyl 2-[[[[[4-ethoxy-6-(methylamino)-1,3,5-triazin-2-yl]amino]carbonyl]amino]sulfonyl]benzoate] | 98.0 g | 88% | 100% | 1.6 g | 96% | 5.6 g | 6% | – | –
COC(=O)c1cccc(C)c1S(=O)(=O)NC(=O)Nc1nc(OCC(F)(F)F)nc(N(C)C)n1 [Triflusulfuron-methyl] | – | – | – | – | – | 2.1 g | – | – | –
COc1cc(OC)nc(Sc2cccc(Cl)c2C(=O)[O-])n1.[Na+] [Pyrithiobac Na^+, Pyrithiobac] | 87.9 g | – | – | 0.0 g | – | 2.8 g | – | 48.6 g | –
COC(=O)c1ccc(C(F)(F)F)nc1S(=O)(=O)NC(=O)Nc1nc(OC)cc(OC)n1 [Flupyrsulfuron-methyl Na^+, methyl 2-[[[[(4,6-dimethoxy-2-pyrimidinyl)amino]carbonyl]amino]sulfonyl]-6-(trifluoromethyl)-3-pyridinecarboxylate] | 95.5 g | 90% | 87% | 23.6 g | 95% | 5.2 g | 4% | 45.8 g | –
COC(=O)c1ccccc1S(=O)(=O)NC(=O)Nc1nc(C)cc(C)n1 [Sulfometuron-methyl, methyl 2-[[[[(4,6-dimethyl-2-pyrimidinyl)amino]carbonyl]amino]sulfonyl]-benzoate] | – | 6% | 100% | 0.0 g | 100% | 2.0 g | 2% | – | –
CO/N=C(/C)c1cccc(Oc2nc(OC)cc(OC)n2)c1C(=O)OC [Pyriminobac-methyl] | – | 20% | 83% | – | 93% | 7.6 g | 4% | – | –
COC(=O)c1ccccc1S(=O)(=O)NC(=O)Nc1nc(C)nc(OC)n1 [Metsulfuron-methyl, methyl 2-[[[[(4-methoxy-6-methyl-1,3,5-triazin-2-yl)amino]carbonyl]amino]sulfonyl]benzoate] | – | – | – | 0.0 g | – | – | – | – | damage from the treatment (GAT-HRA maize): no significant damage; effect on the ryegrass, on its own [5]: did nothing accept stunt the ryegrass plants slightly; damage from the treatment (control maize): severely damaged or killed
CP(=O)(O)CCC(N)C(=O)O (stereo not shown) [Glufosinate ammonium] | – | – | – | – | – | – | – | – | % Visual Injury ([4]; 1870 g/ha): 99%; Fresh Weight ([4]; 1870 g/ha, 2 weeks after treatment): 2.4 g; % Visual Injury ([1]; 1870 g/ha): 1%
COC(=O)c1ccc(I)cc1S(=O)(=O)NC(=O)Nc1nc(C)nc(OC)n1 [Iodosulfuron-methyl Na^+, methyl 4-iodo-2-[[[[(4-methoxy-6-methyl-1,3,5-triazin-2-yl)amino]carbonyl]amino]sulfonyl]benzoate] | 95.0 g | 5% | 92% | 24.4 g | 100% | 3.5 g | 1% | 52.5 g | –
COc1nn(C(=O)NS(=O)(=O)c2ccccc2OC(F)(F)F)c(=O)n1C [Flucarbazone Na^+, 4,5-dihydro-3-methoxy-4-methyl-5-oxo-N-[[2-(trifluoromethoxy)phenyl]sulfonyl]-1H-1,2,4-triazole-1-carboxamide] | 86.0 g | 40% | 100% | 0.0 g | 100% | 3.1 g | 14% | 48.8 g | –
COC(=O)c1ccccc1S(=O)(=O)NC(=O)Nc1nc(C)nc(OC)n1 [Metsulfuron-methyl (BRUSH-OFF ®)] | – | – | – | – | – | – | – | – | Control (%) ([6]; Trial 2: metsulfuron-methyl (BRUSH-OFF) 5 g/ha): 100%; Control (%) ([6]; Trial 3: metsulfuron-methyl (BRUSH-OFF) 10 g/ha): 100%
COc1cc(OC)nc(NC(=O)NS(=O)(=O)c2ncccc2OCC(F)(F)F)n1 [Trifloxysulfuron Na^+, N-[[(4,6-dimethoxy-2-pyrimidinyl)amino]-carbonyl]-3-(2,2,2-trifluoroethoxy)-2-pyridinesulfonamide] | – | 0% | 100% | 0.0 g | 100% | 1.0 g | 29% | – | –
O=C(O)CNCP(=O)(O)O [glyphosate (ROUNDUP ®)] | – | – | – | – | – | – | – | – | Control (%) ([6]; Trial 1: glyphosate (ROUNDUP) 0.5 L/ha): 12%
CCCOc1nn(C(=O)NS(=O)(=O)c2ccccc2C(=O)OC)c(=O)n1C [Propoxycarbazone Na^+, methyl 2-[[[(4,5-dihydro-4-methyl-5-oxo-3-propoxy-1H-1,2,4-triazol-1-yl)carbonyl]amino]sulfonyl]benzoate] | 101.2 g | 100% | 100% | 0.6 g | 100% | 1.9 g | 9% | 46.7 g | –
CCOC(=O)c1ccccc1S(=O)(=O)NC(=O)Nc1nc(Cl)cc(OC)n1 [Chlorimuron-ethyl, ethyl 2-[[[[(4-chloro-6-methoxy-2-pyrimidinyl)amino]carbonyl]amino]sulfonyl]-benzoate] | – | 10% | 100% | 9.3 g | 93% | – | 15% | – | damage from the treatment (GAT-HRA maize): no significant damage; damage from the treatment (control maize): severely damaged or killed
COC(=O)c1c(Cl)nn(C)c1S(=O)(=O)NC(=O)Nc1nc(OC)cc(OC)n1 [Halosulfuron-methyl, methyl 3-chloro-5-[[[[(4,6-dimethoxy-2-pyrimidinyl)amino]-carbonyl]amino]sulfonyl]-1-methyl-1H-pyrazole-4-carboxylate] | – | 15% | 30% | – | 14% | – | 8% | – | –
CCOc1nc(F)cc2nc(S(=O)(=O)Nc3c(Cl)cccc3C(=O)OC)nn12 [Chloransulam-methyl, methyl 3-chloro-2-[[(5-ethoxy-7-fluoro-[1,2,4]triazolo[1,5-c]pyrimidin-2-yl)sulfonyl]amino]benzoate] | 104.4 g | – | – | 5.5 g | 96% | 6.8 g | 3% | 44.9 g | –
CC(C)C1(C)N=C(c2ncccc2C(=O)O)NC1=O (stereo not shown) [Imazapyr] | – | – | – | – | – | – | – | – | damage from the treatment (GAT-HRA maize): no significant damage; damage from the treatment (control maize): severely damaged or killed
